Test results taken from ChEMBL document CHEMBL6182949 (J Med Chem, 2025).
Activity calls are given as the source filed them. The calls are words filed in the database; no cut-off is given here.

How the values were obtained:
[1] = molecular target: T1, Protein cereblon/Interleukin-1 receptor-associated kinase 4 (Homo sapiens, UniProt Q9NWZ3+Q96SW2); test: PROTAC activity at CRBN/IRAK4 in human THP-1 cells assessed as induction of IRAK4 degradation incubated for 24 hrs by HiBiT lytic reagent based analysis relative to control; format: cell-based
Target sequence in this assay (Q96SW2 whole entry, looked up): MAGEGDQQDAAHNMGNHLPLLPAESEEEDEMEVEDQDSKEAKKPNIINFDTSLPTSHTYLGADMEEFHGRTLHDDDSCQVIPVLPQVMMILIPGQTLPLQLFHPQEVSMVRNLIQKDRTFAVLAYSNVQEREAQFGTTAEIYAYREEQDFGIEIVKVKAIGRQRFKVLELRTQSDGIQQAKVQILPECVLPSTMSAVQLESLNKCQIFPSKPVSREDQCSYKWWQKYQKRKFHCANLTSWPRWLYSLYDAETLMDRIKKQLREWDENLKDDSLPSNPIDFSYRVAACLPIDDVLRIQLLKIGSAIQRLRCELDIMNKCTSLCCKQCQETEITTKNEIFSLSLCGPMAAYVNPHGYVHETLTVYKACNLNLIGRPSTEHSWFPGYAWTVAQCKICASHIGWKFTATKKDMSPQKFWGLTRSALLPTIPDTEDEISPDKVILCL
Target sequence in this assay (Q9NWZ3 whole entry, looked up): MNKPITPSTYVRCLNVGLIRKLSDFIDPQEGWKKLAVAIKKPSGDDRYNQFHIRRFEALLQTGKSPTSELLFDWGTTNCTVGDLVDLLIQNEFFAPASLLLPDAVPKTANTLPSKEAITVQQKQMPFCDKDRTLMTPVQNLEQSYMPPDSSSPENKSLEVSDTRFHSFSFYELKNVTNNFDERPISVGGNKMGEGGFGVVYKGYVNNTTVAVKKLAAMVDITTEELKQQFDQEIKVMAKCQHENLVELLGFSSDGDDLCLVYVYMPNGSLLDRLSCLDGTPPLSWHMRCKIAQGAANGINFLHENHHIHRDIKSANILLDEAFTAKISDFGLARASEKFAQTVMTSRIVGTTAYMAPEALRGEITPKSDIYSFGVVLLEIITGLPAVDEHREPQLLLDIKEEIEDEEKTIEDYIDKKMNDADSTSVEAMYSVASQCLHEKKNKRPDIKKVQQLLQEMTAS

[2] = Metabolic stability in cynomolgus monkey liver microsome assessed as half life at 1 uM measured up to 60 mins in presence of NADPH by LC-MS/MS analysis; format: ADME, Macaca fascicularis; conditions: liver microsomes
[3] = molecular target: T1, Protein cereblon/Interleukin-1 receptor-associated kinase 4; test: PROTAC activity at CRBN/IRAK4 in human THP-1 cells assessed as induction of IRAK4 degradation incubated for 24 hrs by HiBiT lytic reagent based analysis; format: cell-based
Target sequence in this assay (Q9NWZ3 whole entry): as the sequence (Q9NWZ3 whole entry, looked up) above
Target sequence in this assay (Q96SW2 whole entry): as the sequence (Q96SW2 whole entry, looked up) above

[4] = Metabolic stability in mouse liver microsome assessed as half life at 1 uM measured up to 60 mins in presence of NADPH by LC-MS/MS analysis; format: ADME; conditions: liver microsomes
[5] = molecular target: Voltage-gated inwardly rectifying potassium channel KCNH2 (Homo sapiens, UniProt Q12809); test: Inhibition of hERG expressed in HEK293 cells by manual patch clamp assay; format: toxicity, cell-based; design: concentration or dose not given beside the values
Voltage-gated inwardly rectifying potassium channel KCNH2, sequence (Q12809 whole entry): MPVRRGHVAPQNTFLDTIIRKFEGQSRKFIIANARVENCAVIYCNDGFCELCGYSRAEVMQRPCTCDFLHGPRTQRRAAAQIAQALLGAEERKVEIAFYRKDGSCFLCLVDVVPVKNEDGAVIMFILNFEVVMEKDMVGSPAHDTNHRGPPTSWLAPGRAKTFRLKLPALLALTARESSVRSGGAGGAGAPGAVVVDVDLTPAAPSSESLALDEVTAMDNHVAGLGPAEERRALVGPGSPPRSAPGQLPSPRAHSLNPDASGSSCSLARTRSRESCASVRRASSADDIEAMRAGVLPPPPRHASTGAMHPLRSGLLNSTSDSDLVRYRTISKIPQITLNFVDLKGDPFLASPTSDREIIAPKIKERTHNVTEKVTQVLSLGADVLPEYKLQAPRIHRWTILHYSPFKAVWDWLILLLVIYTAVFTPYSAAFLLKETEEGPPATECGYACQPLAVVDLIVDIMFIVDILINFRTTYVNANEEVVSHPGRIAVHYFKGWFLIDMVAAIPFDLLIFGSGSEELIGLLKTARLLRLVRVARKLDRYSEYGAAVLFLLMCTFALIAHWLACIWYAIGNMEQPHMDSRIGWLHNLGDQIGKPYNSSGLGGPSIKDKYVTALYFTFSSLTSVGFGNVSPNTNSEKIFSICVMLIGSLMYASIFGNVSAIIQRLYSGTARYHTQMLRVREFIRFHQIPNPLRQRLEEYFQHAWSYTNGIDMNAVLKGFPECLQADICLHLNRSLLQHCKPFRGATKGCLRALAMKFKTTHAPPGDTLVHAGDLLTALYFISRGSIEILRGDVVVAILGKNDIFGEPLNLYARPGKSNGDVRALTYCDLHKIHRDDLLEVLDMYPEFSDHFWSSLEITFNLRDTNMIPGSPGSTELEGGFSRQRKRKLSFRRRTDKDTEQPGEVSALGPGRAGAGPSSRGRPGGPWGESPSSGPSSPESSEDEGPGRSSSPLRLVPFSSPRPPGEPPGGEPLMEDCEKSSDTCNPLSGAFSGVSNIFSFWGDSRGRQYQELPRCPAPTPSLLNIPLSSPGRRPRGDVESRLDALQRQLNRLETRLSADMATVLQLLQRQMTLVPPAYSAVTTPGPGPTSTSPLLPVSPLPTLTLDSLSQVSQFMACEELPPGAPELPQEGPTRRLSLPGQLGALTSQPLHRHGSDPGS

[6] = Metabolic stability in dog liver microsome assessed as half life at 1 uM measured up to 60 mins in presence of NADPH by LC-MS/MS analysis; format: ADME, Canis lupus familiaris; conditions: liver microsomes
[7] = Metabolic stability in human liver microsome assessed as half life at 1 uM measured up to 60 mins in presence of NADPH by LC-MS/MS analysis; format: ADME; conditions: liver microsomes
[8] = Metabolic stability in rat liver microsome assessed as half life at 1 uM measured up to 60 mins in presence of NADPH by LC-MS/MS analysis; format: ADME; conditions: liver microsomes
Mus musculus = test: Anti-arthritic activity against collagen-induced arthritis DBA/1 mouse model assessed as reduction in pathological score at 30 mg/kg, po administered for 14 days; format: functional, organism-based; conditions: time 14.0 day
[9] = Volume of distribution at steady state in Sprague-Dawley rat at 2 mg/kg, iv measured up to 24 hrs by LC-MS/MS analysis; format: ADME, organism-based; conditions: in vivo, read-out: Vdss
[10] = Cmax in male C57BL/6 mouse at 2 mg/kg, iv measured up to 24 hrs by LC-MS/MS analysis; format: ADME, organism-based; conditions: in vivo
[11] = Tmax in Sprague-Dawley rat at 10 mg/kg, po measured up to 24 hrs by LC-MS/MS analysis; format: ADME, organism-based; conditions: in vivo
[12] = Clearance in Sprague-Dawley rat at 2 mg/kg, iv measured up to 24 hrs by LC-MS/MS analysis; format: ADME, organism-based; conditions: in vivo
[13] = AUClast in male C57BL/6 mouse at 2 mg/kg, iv measured up to 24 hrs by LC-MS/MS analysis; format: ADME, organism-based; conditions: in vivo
[14] = AUClast in Sprague-Dawley rat at 10 mg/kg, po measured up to 24 hrs by LC-MS/MS analysis; format: ADME, organism-based; conditions: in vivo
[15] = Oral bioavailability in Sprague-Dawley rat at 10 mg/kg measured up to 24 hrs by LC-MS/MS analysis; format: ADME, organism-based; conditions: in vivo
[16] = Cmax in Sprague-Dawley rat at 10 mg/kg, po measured up to 24 hrs by LC-MS/MS analysis; format: ADME, organism-based; conditions: in vivo
[17] = Half life in male C57BL/6 mouse at 2 mg/kg, iv measured up to 24 hrs by LC-MS/MS analysis; format: ADME, organism-based; conditions: in vivo
[18] = AUClast in Sprague-Dawley rat at 2 mg/kg, iv measured up to 24 hrs by LC-MS/MS analysis; format: ADME, organism-based; conditions: in vivo
[19] = Oral bioavailability in male C57BL/6 mouse at 10 mg/kg measured up to 24 hrs by LC-MS/MS analysis; format: ADME, organism-based; conditions: in vivo
[20] = AUClast in male C57BL/6 mouse at 10 mg/kg, po measured up to 24 hrs by LC-MS/MS analysis; format: ADME, organism-based; conditions: in vivo
hERG (KCNH2) [21] = molecular target: T2, hERG (KCNH2) (Homo sapiens, UniProt Q12809); test: Inhibition of hERG expressed in HEK293 cells at 3 uM by manual patch clamp assay relative to control; format: toxicity, cell-based; conditions: HEK293 cells expressing hERG
T2 sequence (Q12809 whole entry): as above

[22] = Half life in Sprague-Dawley rat at 2 mg/kg, iv measured up to 24 hrs by LC-MS/MS analysis; format: ADME, organism-based; conditions: in vivo
[23] = Cmax in Sprague-Dawley rat at 2 mg/kg, iv measured up to 24 hrs by LC-MS/MS analysis; format: ADME, organism-based; conditions: in vivo
[24] = Tmax in male C57BL/6 mouse at 10 mg/kg, po measured up to 24 hrs by LC-MS/MS analysis; format: ADME, organism-based; conditions: in vivo
[25] = Volume of distribution at steady state in male C57BL/6 mouse at 2 mg/kg, iv measured up to 24 hrs by LC-MS/MS analysis; format: ADME, organism-based; conditions: in vivo, read-out: Vdss
[26] = Cmax in male C57BL/6 mouse at 10 mg/kg, po measured up to 24 hrs by LC-MS/MS analysis; format: ADME, organism-based; conditions: in vivo
[27] = Half life in Sprague-Dawley rat at 10 mg/kg, po measured up to 24 hrs by LC-MS/MS analysis; format: ADME, organism-based; conditions: in vivo
[28] = Half life in male C57BL/6 mouse at 10 mg/kg, po measured up to 24 hrs by LC-MS/MS analysis; format: ADME, organism-based; conditions: in vivo
[29] = Clearance in male C57BL/6 mouse at 2 mg/kg, iv measured up to 24 hrs by LC-MS/MS analysis; format: ADME, organism-based; conditions: in vivo
hERG (KCNH2) [30] = molecular target: T2, hERG (KCNH2); test: Inhibition of hERG expressed in HEK293 cells at 1 uM by manual patch clamp assay relative to control; format: toxicity, cell-based; conditions: HEK293 cells expressing hERG

Row | Structure (SMILES) | Emax [1] [%] | half-life at 1 µM [2] [h] | DC50 [3] [nM] | half-life at 1 µM [4] [h] | inhibition (INH) [5] [%] | half-life at 1 µM [6] [h] | half-life at 1 µM [7] [h] | half-life at 1 µM [8] [h] | Cmax [10] [ng/mL] | AUC(0-t) at 24 h [13] [ng·h/mL] | half-life [17] [h] | bioavailability [19] [%] | AUC(0-t) at 24 h [20] [ng·h/mL] | Tmax [24] [h] | Vd [25] [L/kg] | Cmax [26] [ng/mL] | half-life [28] [h] | clearance [29] [mL/min/kg] | other results
1 | Cn1c(=O)n(C2CCC(=O)NC2=O)c2cccc(CN3CCC(CCN4CCC5(CC4)Cc4cc(NC(=O)c6cnn7cccnc67)c(N6CCC(CO)CC6)cc4O5)CC3)c21 (configuration not stated) | 92 | 0.217 | 1.09 | 1.1 | 28 | 1.55 | 0.733 | 0.817 | – | – | – | – | – | – | – | – | – | – | –
2 | C[C@@H]1CCN(C(=O)CC#N)C[C@@H]1N(C)c1ncnc2[nH]ccc12 | – | – | – | – | – | – | – | – | – | – | – | – | – | – | – | – | – | – | Activity (Mus musculus): Active
3 | Cn1c(=O)n(C2CCC(=O)NC2=O)c2cccc(CCCOCCNCCN3CCC4(CC3)Cc3cc(NC(=O)c5cnn6cccnc56)c(N5CCC(CO)CC5)cc3O4)c21 (configuration not stated) | 68 | – | 1.86 | – | 2 | – | – | – | – | – | – | – | – | – | – | – | – | – | –
4 | Cn1c(=O)n(C2CCC(=O)NC2=O)c2cccc(C#CCO[C@H]3CC[C@H](CN4CCC5(CC4)Cc4cc(NC(=O)c6cnn7cccnc67)c(N6CCC(O)CC6)cc4O5)CC3)c21 (some centres not stated) | 87 | 1.07 | 1.37 | > 3.07 | – | > 3.07 | > 3.07 | > 3.07 | 2780 | 14100 | 2.76 | 59 | 42100 | 4 | 0.6 | 3490 | 3.82 | 2.44 | Vd [9]: 3.69 L/kg; Tmax [11]: 8 h; clearance [12]: 21.4 mL/min/kg; AUClast [14]: 3395 ng·h/mL; F [15]: 15%; Cmax [16]: 352 ng/mL; AUClast [18]: 1436 ng·h/mL; inhibition at 3 µM (hERG (KCNH2) [21]): 35%; half-life [22]: 2.42 h; Cmax [23]: 696 ng/mL; half-life [27]: 3.16 h
5 | Cn1c(=O)n(C2CCC(=O)NC2=O)c2cccc(C#CCO[C@H]3CC[C@H](CN4CCC5(CC4)Cc4cc(NC(=O)c6cnn7cc(F)cnc67)c(N6CCC(CO)CC6)cc4O5)CC3)c21 (some centres not stated) | 87 | – | 2.24 | > 3.07 | – | > 3.07 | > 3.07 | – | 1380 | 11700 | 4.07 | 47 | 27000 | 4 | 0.96 | 2280 | 4.27 | 2.83 | Vd [9]: 3.12 L/kg; Tmax [11]: 6 h; clearance [12]: 12.4 mL/min/kg; AUClast [14]: 8344 ng·h/mL; F [15]: 21%; Cmax [16]: 628 ng/mL; inhibition at 1 µM (hERG (KCNH2) [30]): 36%; AUClast [18]: 424 ng·h/mL; half-life [22]: 3.14 h; Cmax [23]: 243 ng/mL; half-life [27]: 2.94 h
6 | Cn1c(=O)n(C2CCC(=O)NC2=O)c2cccc(C#CCO[C@H]3CC[C@H](CN4CCC5(CC4)Cc4cc(NC(=O)c6cnn7cc(C#N)cnc67)c(N6CCC(CO)CC6)cc4O5)CC3)c21 (some centres not stated) | 89 | 1.07 | 2.81 | 1.98 | – | > 3.07 | > 3.07 | 2.45 | – | – | – | – | – | – | – | – | – | – | inhibition at 3 µM (hERG (KCNH2) [21]): 29%
7 | Cn1c(=O)n(C2CCC(=O)NC2=O)c2cccc(CN3CC4(CCN(CCN5CCC6(CC5)Cc5cc(NC(=O)c7cnn8cccnc78)c(N7CCC(CO)CC7)cc5O6)CC4)C3)c21 (configuration not stated) | 95 | – | 1.66 | – | 6 | – | – | – | – | – | – | – | – | – | – | – | – | – | –
8 | Cn1c(=O)n(C2CCC(=O)NC2=O)c2cccc(C#CCO[C@H]3CC[C@H](CN4CCC5(CC4)Cc4cc(NC(=O)c6cnn7cccnc67)c(N6CCC(CO)CC6)cc4O5)CC3)c21 (some centres not stated) | 90 | 2.33 | 2.65 | > 3.07 | – | > 3.07 | > 3.07 | > 3.07 | 2000 | 7160 | 2.69 | 42 | 14800 | 2 | 0.94 | 1540 | 3.7 | 4.67 | Vd [9]: 3.26 L/kg; Tmax [11]: 6 h; clearance [12]: 15.1 mL/min/kg; AUClast [14]: 3524 ng·h/mL; F [15]: 11%; Cmax [16]: 261 ng/mL; inhibition at 1 µM (hERG (KCNH2) [30]): 28%; AUClast [18]: 2193 ng·h/mL; half-life [22]: 3.94 h; Cmax [23]: 1030 ng/mL; half-life [27]: 3.58 h
9 | Cn1c(=O)n(C2CCC(=O)NC2=O)c2cccc(C#CCOCCNCCN3CCC4(CC3)Cc3cc(NC(=O)c5cnn6cccnc56)c(N5CCC(CO)CC5)cc3O4)c21 (configuration not stated) | 89 | – | 1.17 | – | 8 | – | – | – | – | – | – | – | – | – | – | – | – | – | –
10 | Cn1c(=O)n(C2CCC(=O)NC2=O)c2cccc(CN3CCC4(CC3)CN(CCN3CCC5(CC3)Cc3cc(NC(=O)c6cnn7cccnc67)c(N6CCC(CO)CC6)cc3O5)C4)c21 (configuration not stated) | 95 | 1.17 | 1.53 | 0.65 | 34 | > 3.07 | 0.833 | 0.7 | – | – | – | – | – | – | – | – | – | – | –
11 | Cn1c(=O)n(C2CCC(=O)NC2=O)c2cccc(C#CCO[C@H]3CC[C@H](CN4CCC5(CC4)Cc4cc(NC(=O)c6cnc7cccnn67)c(N6CCC(CO)CC6)cc4O5)CC3)c21 (some centres not stated) | 90 | – | 4.06 | > 3.07 | – | > 3.07 | > 3.07 | – | 1230 | 3190 | 9.75 | 54 | 7390 | 2 | 1.66 | 1190 | 4.4 | 9.75 | inhibition at 1 µM (hERG (KCNH2) [30]): 15%
